Legend:
[1] = tested on: sorghum; assay: Test C preemergence/postemergence greenhouse plant response rating 0 to 100; assay type: in vivo, Sorghum bicolor; settings: POSTEMERGENCE; for Plant response rating, Sorghum: 0 to 100 scale
How it was run: (§1)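 Compounds in non-phytotoxic solvent went onto sandy loam before emergence (seeded one day earlier) or onto plants at the one-to-four leaf stage. Duck salad was treated via flood water (~2.5 cm, maintained) over silt loam.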

[2] = tested on: rape; assay: Test B preemergence/postemergence greenhouse plant response rating 0 to 10; assay type: in vivo, Brassica napus; settings: 0 to 10 scale
How it was run: (§2)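 Postemergence treatment of plants two to eighteen cm tall ran alongside preemergence treatment of planted seed, each using compound in a non-phytotoxic solvent.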

[3] = tested on: wild buckwheat; assay: Test C preemergence/postemergence greenhouse plant response rating 0 to 100; assay type: in vivo, Polygonum convolvulus; settings: POSTEMERGENCE; for Plant response rating, Wild buckwheat: 0 to 100 scale
How it was run: as §1

[4] = tested on: rice; assay: Test B preemergence/postemergence greenhouse plant response rating 0 to 10; assay type: in vivo, Oryza sativa; settings: 0 to 10 scale
How it was run: as §2

[5] = tested on: bedstraw; assay: Test C preemergence/postemergence greenhouse plant response rating 0 to 100; assay type: in vivo, Galium aparine; settings: POSTEMERGENCE; for Plant response rating, Bedstraw: 0 to 100 scale
How it was run: as §1

[6] = tested on: blackgrass; assay: as above; assay type: in vivo, Alopecurus myosuroides; settings: POSTEMERGENCE; for Plant response rating, Blackgrass: 0 to 100 scale
How it was run: as §1

[7] = tested on: pigweed; assay: as above; assay type: in vivo, Amaranthusretroflexus; settings: POSTEMERGENCE; for Plant response rating Pigweed: 0 to 100 scale
How it was run: as §1

[8] = tested on: cheatgrass; assay: Test B preemergence/postemergence greenhouse plant response rating 0 to 10; assay type: in vivo, Bromus secalinus; settings: 0 to 10 scale
How it was run: as §2

[9] = tested on: blackgrass; assay: as above; assay type: in vivo, Alopecurus myosuroides; settings: 0 to 10 scale
How it was run: as §2

[10] = tested on: barley; assay: as above; assay type: in vivo, Hordeum vulgare; settings: 0 to 10 scale
How it was run: as §2

[11] = tested on: sorghum; assay: as above; assay type: in vivo, Sorghum bicolor; settings: 0 to 10 scale
How it was run: as §2

[12] = tested on: ryegrass; assay: Test C preemergence/postemergence greenhouse plant response rating 0 to 100; assay type: in vivo, Lolium multiflorum; settings: POSTEMERGENCE; for Plant response rating Ryegrass: 0 to 100 scale
How it was run: as §1

[13] = tested on: wheat; assay: Test B preemergence/postemergence greenhouse plant response rating 0 to 10; assay type: in vivo, Triticum aestivum; settings: 0 to 10 scale
How it was run: as §2

[14] = tested on: barley; assay: Test C preemergence/postemergence greenhouse plant response rating 0 to 100; assay type: in vivo, Hordeum vulgare; settings: POSTEMERGENCE; for Plant response rating Barley Igri: 0 to 100 scale
How it was run: as §1

[15] = tested on: sugar beet; assay: as above; assay type: in vivo, Beta vulgaris; settings: POSTEMERGENCE; for Plant response rating, Sugar beet: 0 to 100 scale
How it was run: as §1

[16] = tested on: bedstraw; assay: Test B preemergence/postemergence greenhouse plant response rating 0 to 10; assay type: in vivo, Galium aparine; settings: 0 to 10 scale
How it was run: as §2

[17] = tested on: duck salad; assay: Test C flood test plant response rating 0 to 100; assay type: in vivo, Heteranthera limosa; settings: for Plant response rating (0 to 100), Duck salad: under POSTEMERGENCE head (flood test species); for Plant response rating Duck salad: flood test species listed under POSTEMERGENCE, 0 to 100 scale
How it was run: as §1

[18] = tested on: cotton; assay: Test B preemergence/postemergence greenhouse plant response rating 0 to 10; assay type: in vivo, Gossypium hirsutum; settings: 0 to 10 scale
How it was run: as §2

C#CC(C)Oc1cc(-c2nn3c(c2Cl)CCCC3)c(F)cc1Cl (centres unmarked) [Compound 36]
Plant response rating, Sorghum ([1]; 62 g/ha): 60 | Plant response rating, Sorghum ([1]; 125 g/ha): 70 | Plant response rating (0 to 100), Sorghum ([1]; Rate 16 g/ha): 40 | Plant response rating (0 to 100), Sorghum ([1]; Rate 31 g/ha): 50 | Plant response rating, Rape ([2]; POSTEMERGENCE, Rate 50 g/ha): 10 | Plant response rating, Rape ([2]; PREEMERGENCE, Rate 50 g/ha): 5 | Plant response rating, Rape ([2]; Rate 200 g/ha, POSTEMERGENCE): 10 | Plant response rating, Rape ([2]; Rate 200 g/ha, PREEMERGENCE): 8 | Plant response rating, Wild buckwheat ([3]; 62 g/ha): 100 | Plant response rating, Wild buckwheat ([3]; 125 g/ha): 100 | Plant response rating (0 to 100), Wild buckwheat ([3]; Rate 16 g/ha): 70 | Plant response rating (0 to 100), Wild buckwheat ([3]; Rate 31 g/ha): 70 | Plant response rating, Rice ([4]; POSTEMERGENCE, Rate 50 g/ha): 6 | Plant response rating, Rice ([4]; PREEMERGENCE, Rate 50 g/ha): 0 | Plant response rating, Rice ([4]; Rate 200 g/ha, POSTEMERGENCE): 6 | Plant response rating, Rice ([4]; Rate 200 g/ha, PREEMERGENCE): 4 | Plant response rating, Bedstraw ([5]; 62 g/ha): 100 | Plant response rating, Bedstraw ([5]; 125 g/ha): 100 | Plant response rating (0 to 100), Bedstraw ([5]; Rate 16 g/ha): 90 | Plant response rating (0 to 100), Bedstraw ([5]; Rate 31 g/ha): 100 | Plant response rating, Blackgrass ([6]; 62 g/ha): 50 | Plant response rating, Blackgrass ([6]; 125 g/ha): 70 | Plant response rating (0 to 100), Blackgrass ([6]; Rate 16 g/ha): 30 | Plant response rating (0 to 100), Blackgrass ([6]; Rate 31 g/ha): 40 | Plant response rating Pigweed ([7]; 62 g/ha): 100 | Plant response rating Pigweed ([7]; 125 g/ha): 100 | Plant response rating (0 to 100), Pigweed ([7]; Rate 16 g/ha): 100 | Plant response rating (0 to 100), Pigweed ([7]; Rate 31 g/ha): 100 | Plant response rating, Cheatgrass ([8]; POSTEMERGENCE, Rate 50 g/ha): 5 | Plant response rating, Cheatgrass ([8]; POSTEMERGENCE, Rate 200 g/ha): 7 | Plant response rating, Cheatgrass ([8]; PREEMERGENCE, Rate 50 g/ha): 4 | Plant response rating, Cheatgrass ([8]; Rate 200 g/ha, PREEMERGENCE): 6 | Plant response rating, Blackgrass ([9]; POSTEMERGENCE, Rate 50 g/ha): 5 | Plant response rating, Blackgrass ([9]; POSTEMERGENCE, Rate 200 g/ha): 7 | Plant response rating, Blackgrass ([9]; PREEMERGENCE, Rate 50 g/ha): 4 | Plant response rating, Blackgrass ([9]; Rate 200 g/ha, PREEMERGENCE): 10 | Plant response rating, Barley ([10]; POSTEMERGENCE, Rate 50 g/ha): 5 | Plant response rating, Barley ([10]; POSTEMERGENCE, Rate 200 g/ha): 6 | Plant response rating, Barley ([10]; PREEMERGENCE, Rate 50 g/ha): 0 | Plant response rating, Barley ([10]; Rate 200 g/ha, PREEMERGENCE): 2 | Plant response rating, Sorghum ([11]; POSTEMERGENCE, Rate 50 g/ha): 5 | Plant response rating, Sorghum ([11]; PREEMERGENCE, Rate 50 g/ha): 0 | Plant response rating, Sorghum ([11]; Rate 200 g/ha, POSTEMERGENCE): 6 | Plant response rating, Sorghum ([11]; Rate 200 g/ha, PREEMERGENCE): 1 | Plant response rating Ryegrass ([12]; 62 g/ha): 30 | Plant response rating Ryegrass ([12]; 125 g/ha): 50 | Plant response rating (0 to 100), Ryegrass ([12]; Rate 16 g/ha): 20 | Plant response rating (0 to 100), Ryegrass ([12]; Rate 31 g/ha): 30 | Plant response rating, Wheat ([13]; POSTEMERGENCE, Rate 50 g/ha): 5 | Plant response rating, Wheat ([13]; PREEMERGENCE, Rate 50 g/ha): 5 | Plant response rating, Wheat ([13]; Rate 200 g/ha, POSTEMERGENCE): 6 | Plant response rating, Wheat ([13]; Rate 200 g/ha, PREEMERGENCE): 5 | Plant response rating Barley Igri ([14]; 62 g/ha): 30 | Plant response rating Barley Igri ([14]; 125 g/ha): 50 | Plant response rating (0 to 100), Barley Igri ([14]; Rate 16 g/ha): 20 | Plant response rating (0 to 100), Barley Igri ([14]; Rate 31 g/ha): 30 | Plant response rating, Sugar beet ([15]; 62 g/ha): 100 | Plant response rating, Sugar beet ([15]; 125 g/ha): 100 | Plant response rating (0 to 100), Sugar beet ([15]; Rate 16 g/ha): 95 | Plant response rating (0 to 100), Sugar beet ([15]; Rate 31 g/ha): 100 | Plant response rating, Bedstraw ([16]; POSTEMERGENCE, Rate 50 g/ha): 10 | Plant response rating, Bedstraw ([16]; POSTEMERGENCE, Rate 200 g/ha): 10 | Plant response rating, Bedstraw ([16]; PREEMERGENCE, Rate 50 g/ha): 10 | Plant response rating (0 to 100), Duck salad ([17]; Rate 16 g/ha): 0 | Plant response rating (0 to 100), Duck salad ([17]; Rate 31 g/ha): 0 | Plant response rating Duck salad ([17]; 62 g/ha): 30 | Plant response rating Duck salad ([17]; 125 g/ha): 50 | Plant response rating, Cotton ([18]; POSTEMERGENCE, Rate 50 g/ha): 9 | Plant response rating, Cotton ([18]; POSTEMERGENCE, Rate 200 g/ha): 10 | Plant response rating, Cotton ([18]; PREEMERGENCE, Rate 50 g/ha): 4 | Plant response rating, Cotton ([18]; Rate 200 g/ha, PREEMERGENCE): 6
